Measured values reported in patent publication US9695155B2, “Herbicidal substituted pyrimidinyloxy benzene compounds” (E. I. DU PONT DE NEMOURS AND COMPANY, priority 2013, dated 2017).

How the values were obtained:
pigweed [1] = assay: Test D postemergence; assay type: in vivo, Amaranthus retroflexus; conditions: Amaranthus retroflexus, post-emergence, scale 0 to 100 (0 no effect, 100 complete control), read-out: Plant response rating, Pigweed
Summary of the method: (§1)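 After treatment, visual injury versus untreated plants, 0–100 scale, assessed at 7 to 21 days. Applications were made preemergence to silt loam-sown seed and postemergence to seedlings 2–18 cm high in potting medium.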

field violet = assay: Test D postemergence; assay type: in vivo, Viola arvensis; conditions: Viola arvensis, post-emergence, scale 0 to 100 (0 no effect, 100 complete control), read-out: Plant response rating, Field Violet
Summary of the method: as §1

galium [2] = assay: Test D preemergence; assay type: in vivo, Galium aparine; conditions: Galium, pre-emergence, scale 0-100, read-out: Plant response rating, Galium
Summary of the method: as §1

oilseed rape = assay: Test D preemergence; assay type: in vivo, Brassica napus; conditions: Brassica napus, pre-emergence, scale 0-100, read-out: Plant response rating, Oilseed Rape
Summary of the method: as §1

canarygrass = assay: Test D preemergence; assay type: in vivo, Phalaris minor; conditions: Phalaris minor, pre-emergence, scale 0-100, read-out: Plant response rating, Canarygrass
Summary of the method: as §1

chamomile = assay: Test D preemergence; assay type: in vivo, Matricaria inodora; conditions: Tripleurospermum inodorum, pre-emergence, scale 0-100, read-out: Plant response rating, Chamomile
Summary of the method: as §1

galium [3] = assay: Test D postemergence; assay type: in vivo, Galium aparine; conditions: Galium, post-emergence, scale 0 to 100 (0 no effect, 100 complete control), read-out: Plant response rating, Galium
Summary of the method: as §1

speedwell = assay: Test D preemergence; assay type: in vivo, Veronica persica; conditions: Veronica persica, pre-emergence
Summary of the method: as §1

hairy beggarticks = assay: Test E postemergence; assay type: in vivo, Bidens pilosa; conditions: Bidens pilosa, post-emergence, read-out: Plant response rating, Beggarticks
Summary of the method: (§2)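 Compound in a non-phytotoxic solvent mixture with surfactant was applied preemergence to seeds in silt loam soil, or postemergence to plants 2 to 18 cm tall grown in peat-based potting medium. Plants were kept in a greenhouse for 14 to 21 days, then rated visually against untreated controls on a 0 (no effect) to 100 (complete control) scale.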

wild radish = assay: Test D preemergence; assay type: in vivo, Raphanus raphanistrum; conditions: Raphanus raphanistrum, pre-emergence
Summary of the method: as §1

green foxtail = assay: Test D preemergence; assay type: in vivo, Setaria viridis; conditions: Setaria viridis, pre-emergence, scale 0-100, read-out: Plant response rating, Foxtail, Green
Summary of the method: as §1

pigweed [4] = assay: Test D preemergence; assay type: in vivo, Amaranthus retroflexus; conditions: Amaranthus retroflexus, pre-emergence
Summary of the method: as §1

soybean = assay: Test E postemergence; assay type: in vivo, Glycine max; conditions: Glycine max, post-emergence
Summary of the method: as §2

[5] = Postemergence, 31 g ai/ha, scale 0 to 100
[6] = Postemergence, 62 g ai/ha, scale 0 to 100
[7] = Postemergence, 125 g ai/ha, scale 0 to 100
[8] = Postemergence, 250 g ai/ha, scale 0 to 100
[9] = postemergence, 16 g ai/ha, scale 0 to 100, 0 no effect, 100 complete control

N#Cc1cccc(Oc2ncc(Cl)cn2)c1-n1cc(C(F)(F)F)cn1 [Compound 58, 3-[(5-chloro-2-pyrimidinyl)oxy]-2-[4-(trifluoromethyl)-1H-pyrazol-1-yl]benzonitrile]
pest or weed control at 31 g/ha (pigweed [1]; 31 g ai/ha): 90% | pest or weed control at 62 g/ha (pigweed [1]; 62 g ai/ha): 100% | pest or weed control at 125 g/ha (pigweed [1]; 125 g ai/ha): 100% | pest or weed control at 250 g/ha (pigweed [1]; 250 g ai/ha): 100% | pest or weed control at 31 g/ha (field violet; 31 g ai/ha): 100% | pest or weed control at 62 g/ha (field violet; 62 g ai/ha): 100% | pest or weed control at 125 g/ha (field violet; 125 g ai/ha): 100% | pest or weed control at 250 g/ha (field violet; 250 g ai/ha): 100% | pest or weed control at 31 g/ha (galium [2]; 31 g ai/ha): 65% | pest or weed control at 62 g/ha (galium [2]; 62 g ai/ha): 100% | pest or weed control at 125 g/ha (galium [2]; 125 g ai/ha): 100% | pest or weed control at 250 g/ha (galium [2]; 250 g ai/ha): 100% | plant injury at 31 g/ha (oilseed rape; 31 g ai/ha): 100% | plant injury at 62 g/ha (oilseed rape; 62 g ai/ha): 100% | plant injury at 125 g/ha (oilseed rape; 125 g ai/ha): 100% | plant injury at 250 g/ha (oilseed rape; 250 g ai/ha): 100% | pest or weed control at 31 g/ha (canarygrass; 31 g ai/ha): 20% | pest or weed control at 62 g/ha (canarygrass; 62 g ai/ha): 55% | pest or weed control at 125 g/ha (canarygrass; 125 g ai/ha): 100% | pest or weed control at 250 g/ha (canarygrass; 250 g ai/ha): 100% | pest or weed control at 31 g/ha (chamomile; 31 g ai/ha): 30% | pest or weed control at 62 g/ha (chamomile; 62 g ai/ha): 50% | pest or weed control at 125 g/ha (chamomile; 125 g ai/ha): 80% | pest or weed control at 250 g/ha (chamomile; 250 g ai/ha): 100% | pest or weed control at 31 g/ha (galium [3]; 31 g ai/ha): 70% | pest or weed control at 62 g/ha (galium [3]; 62 g ai/ha): 100% | pest or weed control at 125 g/ha (galium [3]; 125 g ai/ha): 100% | pest or weed control at 250 g/ha (galium [3]; 250 g ai/ha): 100% | pest or weed control at 31 g/ha (speedwell; 31 g ai/ha, scale 0 (no effect) to 100 (complete control), read-out: Plant response rating, Speedwell): 100% | pest or weed control at 62 g/ha (speedwell; 62 g ai/ha, scale 0-100, read-out: Plant response rating, Speedwell): 100% | pest or weed control at 125 g/ha (speedwell; 125 g ai/ha, scale 0-100, read-out: Plant response rating, Speedwell): 100% | pest or weed control at 250 g/ha (speedwell; 250 g ai/ha, scale 0-100, read-out: Plant response rating, Speedwell): 100% | pest or weed control at 31 g/ha (hairy beggarticks; [5]): 65% | pest or weed control at 62 g/ha (hairy beggarticks; [6]): 80% | pest or weed control at 125 g/ha (hairy beggarticks; [7]): 90% | pest or weed control at 250 g/ha (hairy beggarticks; [8]): 95% | pest or weed control at 16 g/ha (hairy beggarticks; [9]): 60% | pest or weed control at 31 g/ha (wild radish; 31 g ai/ha, scale 0 (no effect) to 100 (complete control), read-out: Plant response rating, Radish, Wild): 100% | pest or weed control at 62 g/ha (wild radish; 62 g ai/ha, scale 0-100, read-out: Plant response rating, Radish, Wild): 100% | pest or weed control at 125 g/ha (wild radish; 125 g ai/ha, scale 0-100, read-out: Plant response rating, Radish, Wild): 100% | pest or weed control at 250 g/ha (wild radish; 250 g ai/ha, scale 0-100, read-out: Plant response rating, Radish, Wild): 100% | pest or weed control at 31 g/ha (green foxtail; 31 g ai/ha): 100% | pest or weed control at 62 g/ha (green foxtail; 62 g ai/ha): 100% | pest or weed control at 125 g/ha (green foxtail; 125 g ai/ha): 100% | pest or weed control at 250 g/ha (green foxtail; 250 g ai/ha): 100% | pest or weed control at 31 g/ha (pigweed [4]; 31 g ai/ha, scale 0 (no effect) to 100 (complete control), read-out: Plant response rating, Pigweed): 100% | pest or weed control at 62 g/ha (pigweed [4]; 62 g ai/ha, scale 0-100, read-out: Plant response rating, Pigweed): 100% | pest or weed control at 125 g/ha (pigweed [4]; 125 g ai/ha, scale 0-100, read-out: Plant response rating, Pigweed): 100% | pest or weed control at 250 g/ha (pigweed [4]; 250 g ai/ha, scale 0-100, read-out: Plant response rating, Pigweed): 100% | plant response (crop injury) rating, soybean, 0-100 scale at 31 g/ha (soybean; [5]): 95% | plant response (crop injury) rating, soybean, 0-100 scale at 62 g/ha (soybean; [6]): 95% | plant response (crop injury) rating, soybean, 0-100 scale at 125 g/ha (soybean; [7]): 95% | plant response (crop injury) rating, soybean, 0-100 scale at 250 g/ha (soybean; [8]): 100% | plant response (crop injury) rating, soybean, 0-100 scale at 16 g/ha (soybean; [9]): 75%
